According to patent publication US11235001B2, “RUNX inhibitor” (KYOTO UNIVERSITY, priority 2016, dated 2022):
Read-outs that look alike come from different tables or passages of the source.

What was measured:
[1] = tested on: ROR1 and ROR2; test: Western blotting of ROR1 and ROR2 in DAOY; type: cell-based, human; conditions: 1 μM, 24 hours
Method: Cells were washed twice with ice cold phosphate-buffered saline (PBS) and harvested in protein lysis buffer [50 mM Tris (pH 7.4), 100 mM NaCl, 0.1 mM EDTA, 1 mM phenylmethylsulfonyl fluoride, 1 mM β-glycerophosphate, 2.5 mM sodium pyrophosphate, 1 mM Na3VO4, lx protease inhibitor (Roche) and PhosSTOP (Roche)]. Whole cell extracts were separated by SDS-polyacrylamide gel electrophoresis (SDS-PAGE) and electrotransferred onto polyvinylidene difluoride membranes. Membranes were probed with the following antibodies: anti-Ctip1 antibody (Abcam, ab19487), anti-TRIM24 antibody (Bethyl Laboratories, Inc), anti-RUNX1 antibody (A-2), anti-GAPDH (FL-335), anti-p21 (C-19), anti-Bax (N-20) antibodies (Santa Cruz Biotechnology, Inc.), anti-RUNX2, anti-RUNX3, anti-p53 antibodies (Cell Signaling Technology), anti-CBFβ antibody (FL-182, Santa Cruz Biotechnology, Inc.), anti-cleaved caspase-3 antibody (5A1E, Cell Signaling Technology), anti-PARP antibody (46D11, Cell Signaling Technology). […] Blots were detected using Chemi-Lumi One Super (nacalai tesque, Inc.) and ChemiDoc™ XRS+ Imager (Bio-Rad Laboratories, Inc.), as recommended by the manufacturers. Protein levels were quantified with Image Lab Software (Bio-Rad Laboratories, Inc.).
To DAOY cells, 1 μM Chb-M′ was administered. […] The expression of ROR1 was too weak to be detected.

[2] = Half-life in mouse; conditions: in vivo
[3] = tested on: MKN45 cells; test: Xenograft gastric cancer mouse model (MKN45); type: in vivo
[4] = tested on: KG1a
[5] = tested on: p53-mutated colon cancer cell line HT29; conditions: HT29, 72 hours
[6] = tested on: E-selectin, P-selectin, Tie2, ICAM-1, VCAM-1, Jagged-1; test: qRT-PCR of adhesion molecule genes in HUVEC; type: cell-based, human; conditions: 0.5 μM, 1 μM, or 5 μM, 6 hours
[7] = tested on: AML cell lines expressing functional p53 (MV4-11, OCI-AML2, OCI-AML3 and MOLM-13); test: Growth inhibition assay of AML cell lines expressing functional p53; type: cell-based, human; conditions: 48 hours; at between nanomolar to low micromolar levels
Method: Growth inhibition of some AML cell lines expressing functional p53 (MV4-11, OCI-AML2, OCI-AML3 and MOLM-13) by PI polyamide conjugates at different concentrations was tested. Briefly, the cells were placed at a density of 1×10^5 cells/mL. Different concentrations of a PI polyamide conjugate (Chb-M′ or Chb-50) were added to media, and the cells were incubated for 48 hours (n=3). The number of viable cells when the PI polyamide conjugate was not added was used as a control (DMSO control). Cell viability was assessed by counting the viable cells with Cell Count Reagent SF (Nacalai tesque, Inc.) and Infinite (registered trademark) 200 PRO multimode reader (TECAN) according to the manufacturer's instructions.

[8] = tested on: SU/SR cells; conditions: read-out: IC50 value; SU/SR (imatinib-resistant), 48 hours
[9] = tested on: c-kit; test: FACS of cell surface c-kit, LAD2 mast cells; type: cell-based, human; conditions: LAD2 (wild-type c-kit), 10 μM, 18-hour treatment; DMSO 68.3
Text: Mast cells cause symptoms or diseases such as allergic reaction by receptor-mediated activation. In addition, c-kit signal transduction enhances release of chemical mediators from stimulated mast cells. The effect of the RUNX inhibitor on human mast cells was examined. As human mast cells, a LAD2 cell line (expressing wild-type c-kit) and an HMC-1.2 cell line (expressing mutated c-kit) were used. The HMC-1.2 cell line has KIT D816V mutation and V560G mutation. Wild-type c-kit is a SCF receptor and the cell proliferation is dependent on SCF. Accordingly, regarding the LAD2 cell line, 50 ng/ml of SCF was administered and experiments were performed as described below. The HMC-1.2 cell line has a mutation in c-kit and the cell proliferation is independent of SCF. Accordingly, regarding the HMC-1.2 cell line, SCF was not administered and experiments were performed as described below. As the RUNX inhibitor, Chb-M′ was used. […]
To the LAD2 cell line, 10 μM Chb-M′ was administered. After 3 hours and 18 hours, different antibodies were used for immunostaining of c-kit expressed on the cell surface, and the expression levels were analyzed by FACS (fluorescence-activated cell sorter). […] After 18 hours, different antibodies were used for immunostaining of c-kit expressed on the cell surface, and the expression levels were analyzed by FACS. […]

[10] = tested on: IL3, CSF2 and CSF2RB; test: qRT-PCR of RUNX1 target genes in MV4-11 cells; type: cell-based, human; conditions: 5 μM, 6 hours

**Q.** With `CN(C)CCCNC(=O)c1cc(NC(=O)c2cc(NC(=O)c3cc(NC(=O)c4cc(NC(=O)CCCNC(=O)c5nc(NC(=O)c6nc(NC(=O)c7cc(NC(=O)c8nc(NC(=O)CCNC(=O)CCCc9ccc(N(CCCl)CCCl)cc9)cn8C)cn7C)cn6C)cn5C)cn4C)cn3C)cn2C)cn1C` [Chb-M′] as the molecule, how does the “Expression of ROR2 at a protein level” value [1] read?
**A.** suppressed

**Q.** What about the half-life [2] of the same molecule?
**A.** ~5 h

**Q.** What about the “Tumor growth (tumor volume)” value ([3]; MKN45 xenograft, 320 μg/kg IV twice a week, to day 35) of the same molecule?
**A.** almost no change in tumor size

**Q.** And the “Size of gastric cancer (IVIS)” value ([3]; day 21 after transplantation, after total 4 administrations)?
**A.** decreased

**Q.** What about the “Size of gastric cancer (IVIS)” value ([3]; day 35 after transplantation, after total 8 administrations) of the same molecule?
**A.** slightly grew

**Q.** And the “CI (Fa = 0.5)” value ([4]; p53null, concomitant use of Chb-M′ and PRIMA-1, Chou-Talalay, CI<1 synergism)?
**A.** 2.01

**Q.** And the IC50 ([4]; read-out: IC50 (μM) of Chb-M′ in concomitant use with PRIMA-1 (5 μM), p53null, 48 hours, with 5 μM PRIMA-1)?
**A.** > 100 µM

**Q.** And the IC50 ([4]; read-out: IC50 (μM) of Chb-M′ single agent administration, p53null, 48 hours)?
**A.** > 100 µM

**Q.** What about the IC50 [5] of the same molecule?
**A.** 2920 nM

**Q.** And the “E-selectin, P-selectin, and VCAM-1 mRNA levels” value [6]?
**A.** markedly suppressed

**Q.** And the “Growth inhibition of AML cells” value [7]?
**A.** highly effective

**Q.** What about the IC50 [8] of the same molecule?
**A.** 44 nM

**Q.** And the “MFI (mean fluorescent intensity) of surface c-kit” value [9]?
**A.** 48.8

**Q.** What about the “Expressions of RUNX1 target genes (IL3, CSF2, and CSF2RB), mRNA” value [10] of the same molecule?
**A.** effectively inhibited
